# What was measured:
# [1] = test system: Tie2Cre⋅Pkd2^flox/flox mice; assay: Endothelial-specific Pkd2 mouse model, 8-week treatment (Example 2); assay type: in vivo
# Experimental: Mouse models. All mouse experiments were performed by two operators who were blinded to the experimental conditions. All animal procedures were performed according to the University of California Irvine and Chapman University Animal Care and Use Committee Guidelines. One-week-old Tie2Cre⋅Pkd2^WT/WT (with Cre activation; control group), Tie2Cre⋅Pkd2^flox/flox (without Cre activation; control group) or Tie2Cre⋅Pkd2^flox/flox (with Cre activation; experimental group) mice were intraperitoneally injected with 250 μg of tamoxifen in a 50-μL volume daily for five consecutive days. A limited number of IFT88 mice was also used as a cilia-less model in this study. […] On the other hand, fenoldopam-alone (1 μg/kg/min) was perfused for 30 minutes every 72 hours for 8 weeks. […] Five minutes after the CT-Fe2O3-NP injection, a 1.35-T AlNiCo cylindrical magnet (VWR International) was placed at the posterior and anterior regions of the mouse for 10 minutes daily.
# Mouse blood pressure measurements. […] Blood pressure was measured twice daily for the duration of the study after the initial three days of acclimating each mouse to the cuff. All measurements were performed by operators in a double-blind. At the end of the 12-week treatment, the haematology results including the BUN and plasma nitrate/nitrite measurements were examined. BUN assays were conducted using an Arbor Assays calorimetric Detection Kit. Plasma nitrate/nitrite concentrations were quantified using a Cayman nitrate/nitrite assay kit. All steps were performed according to the manufacturers' instructions.
# H&E and Masson's trichrome staining. Sections of the zebrafish (whole body) and major mouse organs, including the hearts, kidneys, livers, spleens and lungs, were collected and subjected to H&E staining for zebrafish cysts and histopathology by fixation in 10% formalin. Then, the tissues were dehydrated in buffered formalin, ethanol, and xylene. Finally, the tissues were embedded in liquid paraffin, sectioned (4 μm), and stained with H&E for histological examinations. The pathology slices were observed and imaged using a KEYENCE-BZ-X710 microscope. Mouse heart sections were stained with Masson's trichrome to detect fibrosis using a Masson's Trichrome Stain Kit (Polysciences).
# p-ERK = assay: Immunoblotting of phosphorylated ERK; assay type: cell-based
# Experimental: Immunoblotting. […] Samples were kept on ice during sonication to prevent overheating. Samples were then centrifuged at 15,000 rpm for 20 min, and the supernatants were collected and subjected to protein quantification. The PAGE (polyacrylamide gel electrophoresis) on 6-10% SDS gels was performed followed by semi-dry transfer to PVDF membranes using a Bio-Rad Trans-Blot Turbo Transfer System and detection using antibodies against t-ERK (1:1,000), p-ERK (1:1,000), NOS (1:200), and GAPDH (1:2,000) (Cell Signaling Technology). Blots were scanned with both calorimetry to image molecular markers and chemiluminescence to capture the protein signal intensity using a Bio-Rad imager.
# LLC-PK1 cells = assay: Intracellular and ciliary Ca2+ and NO imaging under flow or magnetic field (Example 2); assay type: cell-based, porcine; conditions: 5HT6-mCherry-G-GECO1.0, single cell single cilium
# Experimental: Cells were grown as monolayer on glass-bottomed plates to enable live microscopy imaging. […] For intracellular NO measurements, cells were loaded with 20 μM DAF-FM (Cayman Chemical) for 30 minutes at 37° C. […] Fluid shear stress was then applied to cells through […] peristaltic pumps with an inlet and outlet setup. The fluid was perfused through cell monolayers at a sub-minimal shear stress of 0.5 dyn/cm^2. […] An alnico cylindrical magnet (VWR International, PA) was used to oscillate a primary cilium. This 100-gram AlNiCo magnet produced a permanent magnetic field of 1.35 T. Once a cilium was placed on the specimen holder and in the plane of view, the magnet was mounted on the top of an inverted Nikon Ti-E microscope. The magnet was then mechanically moved with an oscillation frequency of 1.6 Hz. The movement of cilia by the magnetic field was continuously recorded for the duration of the experiment. To examine how much force the magnetic field generated onto a cilium, we calculated the movement of cilia in response to the oscillating magnetic field (Supplement). […] The shear stress ranged from 0.01 to 1.0 dyn/cm^2 and was accurately measured and controlled at all times. […] Approximately 15-20 cilia were analysed for each treatment using different fluorescence filters. […] The GFP/mCherry ratios were also calculated using Nikon tracking software.
# [2] = test system: Tie2Cre⋅IFT88^flox/flox mice; assay: Working heart perfusion system, hearts of treated IFT88 mice; assay type: in vivo, mouse
smiles,measurement,setting,value
"Oc1ccc(C2CNCCc3c2cc(O)c(O)c3Cl)cc1 (stereo not shown) [Fenoldopam, fenoldopam]",acute blood pressure and heart rate,[1]; 60 minutes after infusion,"immediate decrease in blood pressure, followed by reflex tachycardia"
same,"blood pressure (SBP, MAP)","[1]; Pkd2 mice, every 72 hours for 8 weeks",did not result in an overall decrease in systemic blood pressure
same,mortality,"[1]; Pkd2 mice, repeated infusions for 8 weeks",40%
same,duration of blood pressure decrease,[1]; after infusion,approximately one
same,cilia length,[1]; continuous infusion for 5 days,increased the cilia length
same,ERK phosphorylation,p-ERK,increased ERK phosphorylation
same,intraciliary and cytosolic Ca^2+ signalling,LLC-PK1 cells,induced less of an increase in the intraciliary Ca^2+ signalling
same,"CO, cardiac output",[2]; diltiazem stress,1857 ± 137 µL/min
same,"EDPVR, end-diastolic pressure volume relation",[2]; diltiazem stress,0.13 ± 0.01 mmHg/μL
same,"EF, ejection fraction",[2]; diltiazem stress,51.6 ± 1.7%
same,"ESPVR, end-systolic pressure volume relation",[2]; diltiazem stress,2.1 ± 0.1 mmHg/μL
same,"HR, heart rate",[2]; diltiazem stress,104 ± 20 beat/min
same,"LV EDP, end-diastolic pressure",[2]; diltiazem stress,5.1 ± 0.1 mmHg
same,"LV EDV, end-diastolic volume",[2]; diltiazem stress,40.0 ± 0.1 µL
same,"LV ESP, end-systolic pressure",[2]; diltiazem stress,30.2 ± 0.1 mmHg
same,"LV ESV, end-systolic volume",[2]; diltiazem stress,19.4 ± 0.7 µL
same,"LV Pmax, systolic pressure",[2]; diltiazem stress,40.2 ± 0.1 mmHg
same,"SV, stroke volume",[2]; diltiazem stress,20.6 ± 0.7 µL
same,"SW, stroke work",[2]; diltiazem stress,725 ± 20 mmHg · μL
same,"dP/dtmax, maximum rate of LV pressure rise",[2]; diltiazem stress,3619 ± 111 mmHg/s
same,"dP/dtmin, maximum rate of LV pressure fall",[2]; diltiazem stress,−1372 ± 330 mmHg/s
same,"CO, cardiac output",[2]; epinephrine stress,7590 ± 176 µL/min
same,"EDPVR, end-diastolic pressure volume relation",[2]; epinephrine stress,0.13 ± 0.01 mmHg/μL
same,"EF, ejection fraction",[2]; epinephrine stress,78.2 ± 2.2%
same,"ESPVR, end-systolic pressure volume relation",[2]; epinephrine stress,10.0 ± 1.1 mmHg/μL
same,"HR, heart rate",[2]; epinephrine stress,241 ± 22 beat/min
same,"LV EDP, end-diastolic pressure",[2]; epinephrine stress,5.3 ± 0.2 mmHg
same,"LV EDV, end-diastolic volume",[2]; epinephrine stress,40.2 ± 0.1 µL
same,"LV ESP, end-systolic pressure",[2]; epinephrine stress,64.5 ± 0.2 mmHg
same,"LV ESV, end-systolic volume",[2]; epinephrine stress,8.7 ± 0.9 µL
same,"LV Pmax, systolic pressure",[2]; epinephrine stress,56.0 ± 0.3 mmHg
same,"SV, stroke volume",[2]; epinephrine stress,31.4 ± 0.8 µL
same,"SW, stroke work",[2]; epinephrine stress,2538 ± 16 mmHg · μL
same,"dP/dtmax, maximum rate of LV pressure rise",[2]; epinephrine stress,17206 ± 578 mmHg/s
same,"dP/dtmin, maximum rate of LV pressure fall",[2]; epinephrine stress,-3180 ± 120 mmHg/s
same,"CO, cardiac output",[2]; vehicle,3780 ± 437 µL/min
same,"EDPVR, end-diastolic pressure volume relation",[2]; vehicle,0.13 ± 0.01 mmHg/μL
same,"EF, ejection fraction",[2]; vehicle,65.5 ± 3.5%
same,"ESPVR, end-systolic pressure volume relation",[2]; vehicle,5.4 ± 0.7 mmHg/μL
same,"HR, heart rate",[2]; vehicle,144 ± 32 beat/min
same,"LV EDP, end-diastolic pressure",[2]; vehicle,5.1 ± 0.1 mmHg
same,"LV EDV, end-diastolic volume",[2]; vehicle,40.1 ± 0.1 µL
same,"LV ESP, end-systolic pressure",[2]; vehicle,54.3 ± 1.0 mmHg
same,"LV ESV, end-systolic volume",[2]; vehicle,13.8 ± 1.4 µL
same,"LV Pmax, systolic pressure",[2]; vehicle,72.4 ± 1.3 mmHg
same,"SV, stroke volume",[2]; vehicle,26.3 ± 1.4 µL
same,"SW, stroke work",[2]; vehicle,1767 ± 56 mmHg · μL
same,"dP/dtmax, maximum rate of LV pressure rise",[2]; vehicle,7819 ± 140 mmHg/s
same,"dP/dtmin, maximum rate of LV pressure fall",[2]; vehicle,−1658 ± 190 mmHg/s
